Data on two molecules can be found in patent US10336709B2, “Lp-PLA2 inhibitors” (ABIDE THERAPEUTICS, INC., priority 2015, dated 2019).

One assay concerns the target T1, Lp-PLA2 (Mus musculus, UniProt Q60963).
T1 construct: Mouse brain membrane proteomes (50 μL, 1.0 mg/mL total protein concentration) were preincubated; from tissue; host or cells: mouse brain membrane fraction
T1 sequence (Q60963 22-440): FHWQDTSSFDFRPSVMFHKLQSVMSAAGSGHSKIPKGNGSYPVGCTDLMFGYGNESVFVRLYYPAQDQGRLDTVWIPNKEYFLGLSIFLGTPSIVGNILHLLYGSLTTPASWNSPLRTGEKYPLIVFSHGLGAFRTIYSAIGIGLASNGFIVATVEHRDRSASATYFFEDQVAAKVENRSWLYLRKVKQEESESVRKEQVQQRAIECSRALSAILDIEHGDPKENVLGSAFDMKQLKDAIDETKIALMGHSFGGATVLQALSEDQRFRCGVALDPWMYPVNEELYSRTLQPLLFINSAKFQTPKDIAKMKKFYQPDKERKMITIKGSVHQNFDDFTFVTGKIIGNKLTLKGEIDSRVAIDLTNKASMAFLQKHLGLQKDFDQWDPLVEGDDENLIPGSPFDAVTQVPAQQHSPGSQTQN
Briefly: In vitro competitive activity-based protein profiling (HT-01 probe, gel band PLA2G7). Format: biochemical. The settings on record: mouse brain membrane proteomes. The procedure:
(§1) Compounds are tested to assess their Lp-PLA2 and serine hydrolase activity using the following in vitro assays.
(§2) In Vitro Competitive Activity-Based Protein Profiling
(§3) Mouse brain membrane proteomes (50 μL, 1.0 mg/mL total protein concentration) were preincubated with varying concentrations of inhibitors at 37° C. After 30 min, HT-01 probe (1.0 μL, 50 μM in DMSO) was added and the mixture was incubated for another 30 min at room temperature. Reactions were quenched with SDS loading buffer (15 μL-4×) and run on SDS-PAGE gels. Following gel imaging, serine hydrolase activity was determined by measuring fluorescent intensity of gel bands corresponding to PLA2G7 and ABHD6 using ImageJ 1.49 k software.

The target of another assay is T2, ABHD6 (Mus musculus, UniProt Q8R2Y0).
T2 construct: Mouse brain membrane proteomes (50 μL, 1.0 mg/mL total protein concentration) were preincubated; from tissue; host or cells: mouse brain membrane fraction
T2 sequence (Q8R2Y0 1-336): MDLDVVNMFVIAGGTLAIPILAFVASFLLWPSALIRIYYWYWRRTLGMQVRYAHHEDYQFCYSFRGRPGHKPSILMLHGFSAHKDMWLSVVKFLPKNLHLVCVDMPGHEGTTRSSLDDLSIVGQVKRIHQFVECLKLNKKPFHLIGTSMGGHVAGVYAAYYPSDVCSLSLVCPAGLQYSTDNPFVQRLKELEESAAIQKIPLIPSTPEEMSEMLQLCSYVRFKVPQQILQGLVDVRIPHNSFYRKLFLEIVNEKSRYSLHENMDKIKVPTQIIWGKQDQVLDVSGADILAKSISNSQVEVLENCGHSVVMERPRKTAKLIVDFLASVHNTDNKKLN
Briefly: In vitro competitive activity-based protein profiling (HT-01 probe, gel band ABHD6). Format: biochemical. Particulars: mouse brain membrane proteomes, 30 min preincubation at 37° C. The procedure:
as §1, §2, §3

The term inhibition denotes the change of the read-out against control, counted positive when it falls. Low readings indicate a weak effect, high ones a strong effect. For orientation: IC50 means the point on the concentration scale where inhibition reaches its midpoint. A low value points to higher potency. `CC(C)[C@H]1NC(=O)N(OC(=O)N2CCN(c3cccc(C(=O)N4CCOCC4)c3Cl)CC2)C1=O` [Example 6, (R)-4-isopropyl-2,5-dioxoimidazolidin-1-yl 4-(2-chloro-3-(morpholine-4-carbonyl)phenyl)piperazine-1-carboxylate] registered an inhibition at 10 µM on Lp-PLA2 (at 10 μM) of 75%. Moreover, the IC50 at ABHD6 lay within 100 to 1000 nM.
In the case of `CN1C(=O)N(OC(=O)N2CCN(c3cccc(C(=O)N4CCCCC4)c3Cl)CC2)C(=O)[C@@H]1Cc1ccccc1` [Example 20, (S)-4-benzyl-3-methyl-2,5-dioxoimidazolidin-1-yl 4-(2-chloro-3-(piperidine-1-carbonyl)phenyl)piperazine-1-carboxylate], the IC50 on Lp-PLA2 (30 min preincubation at 37° C) and on ABHD6 was under 100 nM throughout.
